The source of these data is patent US8974823B2, “Solid compositions of low-solubility drugs and poloxamers” (Bend Research, Inc., priority 2003, dated 2015).

Molecules are shown by their SMILES. Where a name gives a salt, the structure may show the parent alone.

One data set in a line: Log P of the drug. The following applies: for logP: octanol/water, Log P.
A short description of data set [1]: glass transition temperature (Tg) of the drug. The class given is physicochemical. The following applies: for Tg: Table B, unless noted Tg measured at less than 10% RH. The procedure:
In a first aspect, the invention comprises a solid composition comprising a plurality of particles. The particles comprise a low-solubility drug and a poloxamer. The drug is in intimate contact with the poloxamer in the particles. Collectively, the drug and poloxamer constitute at least 50 wt % of the particles. At least a substantial portion of the drug in the composition is amorphous. The Tg of the drug is at least 50° C. Unless otherwise noted, as used herein the Tg refers to the Tg measured at less than 10% RH.
Such Tg values may represent that of drug dispersed in the amorphous portions of the poloxamer or the Tg of drug-rich phases or domains. […] The Tg of the drug may be at least about 60° C., at least about 70° C., or even at least about 80° C. The Tg of a drug can be determined using standard analytical techniques well known in the art, including by a dynamic mechanical analyzer (DMA), a dilatometer, a dielectric analyzer, and by differential scanning calorimetry (DSC).

Data set [2] in a line: in vitro dissolution test of Drug 2 compositions in Model Fasted Duodenal solution. Type of data set: physicochemical. The following applies: for AUC / Drug 2 Concentration: MFD solution, 200 μg/mL if all dissolved; for Drug 2 Concentration: 37° C. The procedure: (§1) The solid compositions of Examples 1-2 were evaluated in an in vitro dissolution test to ascertain concentration enhancement of Drug 1. A […] sample of each solid composition was added in duplicate to a microcentrifuge tube, so that the total concentration of Drug 1 would have been 2000 μg/mL if all of the drug had dissolved. The tubes were placed in a 37° C. temperature-controlled chamber, and 1.8 mL PBS containing 0.5 wt % sodium taurocholic acid and 1-palmitoyl-2-oleyl-sn-glycero-3-phosphocholine (NaTC/POPC, with a 4/1 weight ratio) at pH 6.5 and 290 mOsm/kg (simulating a Model Fasted Duodenal solution) was added to each respective tube. The samples were quickly mixed using a vortex mixer for about 60 seconds. The samples were centrifuged at 13,000 G at 37° C. for 1 minute. The resulting supernatant solution was then sampled and diluted 1:6 (by volume) with methanol and then analyzed by high-performance liquid chromatography (HPLC). The contents of each respective tube were mixed on a vortex mixer and allowed to stand undisturbed at 37° C. until the next sample was taken. Samples were collected at 4, 10, 20, 40, 90, and 1200 minutes.
Examples 3-4 were tested by in vitro dissolution tests to ascertain concentration enhancement of Drug 2 as in Examples 1-2, except that a sufficient amount of material was added to the Model Fasted Duodenal solution to obtain a drug concentration of 200 μg/mL if all of the drug dissolved. As a control (C2), crystalline Drug 2 alone was used.
The concentrations of drug obtained in these samples were used to determine the MDC90 and the AUC90 during the initial 90 minutes.

Data set [3] is described as follows: in vitro dissolution test of Drug 3 compositions in PBS. Type of data set: physicochemical. The note with it: for AUC / Drug 3 Concentration: 1000 μg/mL if all dissolved; for Drug 3 Concentration: 37° C.
Data set [4] can be described thus: in vitro dissolution test of Drug 5 particles in MFD solution. Type of data set: physicochemical. The following applies: dose 120 μg/mL; for AUC / Drug 5 Concentration: MFD solution; for Drug 5 Concentration: 37° C. The procedure:
as §1
The so-formed particles were tested in vitro to ascertain concentration enhancement of Drug 5 as in Examples 1-2 at a dose of 120 μg/mL. Control C9 consisted of amorphous Drug 5 alone.
The concentration of drug obtained in these samples were used to determine the Cmax90 during the initial 90 minutes.

Experiment in data set [5]: as above
The class given is physicochemical. The note with it: dose 120 μg/mL; for Drug 5 Concentration: 37° C.

[6] abbreviates: Drug 5, MFDS, initial 90 minutes.

Description for Log P of the drug: A common measure of hydrophobicity is Log P, defined as the base 10 logarithm of the ratio of the drug solubility in octanol to the drug solubility in water. Log P may be measured experimentally or calculated using methods known in the art.

Usually logP stands for a log measure of how a compound divides between an organic and an aqueous phase. Regarding `CCCc1nn(C)c2c(=O)[nH]c(-c3cc(S(=O)(=O)N4CCN(C)CC4)ccc3OCC)nc12` [1-[4-ethoxy-3-(6,7-dihydro-1-methyl-7-oxo-3-propyl-1H-pyrazolo[4,3-d]pyrimidin-5-yl)phenylsulphonyl]-4-methylpiperazine], the logP in “Log P of the drug” was 7. Besides, in data set [1], the Tg stood at 135 °C.

One may read the Log P as the decadic logarithm of the partition coefficient of the neutral form, usually between octanol and water. The low end stands for lower lipophilicity, the high end for higher lipophilicity. With `Cc1ncccc1CNC(=O)c1ccc2c(c1)CC[C@@H]1C[C@@](O)(CCC(F)(F)F)CC[C@@]21Cc1ccccc1` [Drug 2, 2-phenanthrenecarboxamide,4b,5,6,7,8,8a,9,10-octahydro-7-hydroxy-N-[(2-methyl-3-pyridinyl)methyl]-4b-(phenylmethyl)-7-(3,3,3-trifluoropropyl)-, (4bS,7S,8aR)-], in the data set “Log P of the drug”, the “Log P” value was “about 6.2”. The Tg in data set [1] came out at 99 °C. Besides, the “Tg,drug” value in data set [1] (at 0% RH) stood at 99 °C.

On to `CCOC(=O)N1c2ccc(C(F)(F)F)cc2[C@@H](N(Cc2cc(C(F)(F)F)cc(C(F)(F)F)c2)C(=O)OC)C[C@H]1CC` [Drug 4, [2R,4S] 4-[(3,5-bis-trifluoromethyl-benzyl)-methoxycarbonyl-amino]-2-ethyl-6-trifluoromethyl-3,4-dihydro-2H-quinoline-1-carboxylic acid ethyl ester], for which, in the data set “Log P of the drug”, the “Log P” value was 7.3 and the logP is around 7.5. For the same compound, the “Tg,drug” value in data set [1] (at ambient RH) was “about 28 °C”.

Take `CCc1cc(Oc2cccc(N(Cc3cccc(OC(F)(F)C(F)F)c3)C[C@@H](O)C(F)(F)F)c2)ccc1Cl` [Drug 5, (2R)-3-[[3-(4-chloro-3-ethylphenoxy)phenyl][[3-(1,1 ,2,2-tetrafluoroethoxy)phenyl]methyl]amino]-1,1,1-trifluoro-2-propanol]: in “Log P of the drug”, the “Log P” value is given as 10.1 and the logP was around 10. In addition, the “Tg,drug” value in data set [1] (RH not stated) was “about −15 °C”.

A word on the AUC: it is concentration integrated over time. The compound `Cc1ncccc1CNC(=O)c1ccc2c(c1)CC[C@@H]1C[C@@](O)(CCC(F)(F)F)CC[C@@]21Cc1ccccc1` [Example C2, 2-phenanthrenecarboxamide,4b,5,6,7,8,8a,9,10-octahydro-7-hydroxy-N-[(2-methyl-3-pyridinyl)methyl]-4b-(phenylmethyl)-7-(3,3,3-trifluoropropyl)-, (4bS,7S,8aR)-] returned an AUC90 in data set [2] (Drug 2, MFD, initial 90 minutes) of 100 µg·min/mL. The compound further registered a Cmax90 in data set [2] (Drug 2, MFD, initial 90 minutes (MDC90 in the text)) of 1000 ng/mL. The area under the curve (AUC) in data set [2] (Drug 2, time 0 min) was determined as 0 µg·min/mL; in data set [2] (Drug 2, time 4 min) it was 0 µg·min/mL; in data set [2] (Drug 2, time 10 min) it was 0 µg·min/mL; in data set [2] (Drug 2, time 20 min), 0 µg·min/mL; in data set [2] (Drug 2, time 40 min) it was 0 µg·min/mL; in data set [2] (Drug 2, time 90 min), 100 µg·min/mL. Besides, the AUC in data set [2] (Drug 2, time 1200 min) was found to be 3400 µg·min/mL. Also, the “Drug 2 Concentration” value worked out at 0 µg/mL in data set [2] (time 0 min); 1 µg/mL in data set [2] (time 4 min); 1 µg/mL in data set [2] (time 10 min); 0 µg/mL in data set [2] (time 20 min); 0 µg/mL in data set [2] (time 40 min); 1 µg/mL in data set [2] (time 90 min). Moreover, the “Drug 2 Concentration” value in data set [2] (time 1200 min) stood at 5 µg/mL.

In data set [3] (Drug 3, initial 90 minutes), `Cc1c(O)cccc1C(=O)N[C@@H](CSc1ccccc1)[C@H](O)CN1C[C@H]2CCCC[C@H]2C[C@H]1C(=O)NC(C)(C)C` [Example C3, nelfinavir mesylate] displayed an AUC90 of 400 µg·min/mL. In data set [3] (Drug 3, initial 90 minutes (MDC90 in the text)), the Cmax90 came to 6000 ng/mL. The AUC in data set [3] (Drug 3, time 0 min) worked out at 0 µg·min/mL; in data set [3] (Drug 3, time 4 min) it was 0 µg·min/mL; in data set [3] (Drug 3, time 10 min) it was 0 µg·min/mL; in data set [3] (Drug 3, time 20 min), 100 µg·min/mL; in data set [3] (Drug 3, time 40 min), 200 µg·min/mL; in data set [3] (Drug 3, time 90 min), 400 µg·min/mL. In addition, the AUC in data set [3] (Drug 3, time 1200 min) is 5100 µg·min/mL. Besides, the “Drug 3 Concentration” value amounted to 0 µg/mL in data set [3] (time 0 min); 5 µg/mL in data set [3] (time 4 min); 5 µg/mL in data set [3] (time 10 min); 6 µg/mL in data set [3] (time 20 min); 6 µg/mL in data set [3] (time 40 min); 4 µg/mL in data set [3] (time 90 min). Besides, the “Drug 3 Concentration” value in data set [3] (time 1200 min) is 5 µg/mL.

Take `CCc1cc(Oc2cccc(N(Cc3cccc(OC(F)(F)C(F)F)c3)C[C@@H](O)C(F)(F)F)c2)ccc1Cl` [Example C9, (2R)-3-[[3-(4-chloro-3-ethylphenoxy)phenyl][[3-(1,1 ,2,2-tetrafluoroethoxy)phenyl]methyl]amino]-1,1,1-trifluoro-2-propanol]: in data set [4] (setting [6]), the AUC90 is given as 1,400 min * μg/mL. In addition, the Cmax90 in data set [4] (setting [6]) was found to be 29000 ng/mL. The AUC in data set [4] (Drug 5, time 40 min) was 330 µg·min/mL; in data set [4] (Drug 5, time 90 min), 1,400 min * μg/mL; in data set [4] (Drug 5, time 1200 min), 60,700 min * μg/mL; in data set [5] (Drug 5, time 0 min), 0 µg·min/mL; in data set [5] (Drug 5, time 3.5 min), 5 µg·min/mL; in data set [5] (Drug 5, time 7.25 min) it was 17 µg·min/mL. For the same compound, the AUC stood at 34 µg·min/mL in data set [5] (Drug 5, time 11 min) and 96 µg·min/mL in data set [5] (Drug 5, time 20 min). The “Drug 5 Concentration” value in data set [4] (time 0 min) was 0 µg/mL; in data set [4] (time 40 min) it was 15 µg/mL; in data set [4] (time 90 min) it was 29 µg/mL; in data set [4] (time 1200 min), 78 µg/mL; in data set [5] (time 3.5 min), 2.8 µg/mL; in data set [5] (time 7.25 min), 3.8 µg/mL. For the same compound, the “Drug 5 Concentration” value was found to be 5.3 µg/mL in data set [5] (time 11 min) and 8.4 µg/mL in data set [5] (time 20 min).

Consider `CC[C@@H]1C[C@H](N(Cc2cc(C(F)(F)F)cc(C(F)(F)F)c2)C(C)=O)c2cc(C(F)(F)F)ccc2N1C(=O)OC(C)C` [[2R,4S] 4-[acetyl-(3,5-bis-trifluoromethyl-benzyl)-amino]-2-ethyl-6-trifluoromethyl-3,4-dihydro-2H-quinoline-1-carboxylic acid isopropyl ester], for which the logP in the data set “Log P of the drug” was found to be 6.9.

For `CCC(CC)Nc1cc(C)nc(Oc2c(C)cc(C)cc2C)c1C` [[3,6-dimethyl-2-(2,4,6-trimethyl-phenoxy)-pyridin-4-yl]-(1-ethyl-propyl)-amine], the logP in “Log P of the drug” amounted to 7.
